Reference: publication PMC4197335, “Cancer-Selective Targeting of the NF-κB Survival Pathway with GADD45β/MKK7 Inhibitors” (Cancer Cell, 2014)
Values after ≈ are worked out from the molar mass of the structure shown. Like-named read-outs stand apart in the source and are kept apart here.

Tests used:
[1] = pharmacokinetics after single intravenous injection
Method: The pharmacokinetic analyses of DTP3 and z-DTP2 were outsourced. Additional details are provided in Supplemental Experimental Procedures. […]
(§1) Pharmacokinetic Anal yses
In vitro and in vivo pharmacok inetic analyses were outsourced to Cypr ot ex (http://www.c yprotex.com/home/) (Figure 7A, Tables S6). In vitro pharmacok inetic assays were perf ormed according to established, in- house protocols and included: plasma stability (human), thermodynamic solubility (PBS pH 7.4, at 37 °C f or 14 days), microsomal stability (human), plasma protein binding (PPB; mouse and human), and distribution coeff icient (LogD). In vivo pharmacok inetic […]
analyses were also perf ormed at Cyprotex according to established, in- house protocols. Brief ly, the peptides were dissolved in PBS and administered by single intravenous injection t o CD1 male mice at the dose of 10 mg/kg (25 -30 g of total body weight; n=3 mice per time point per compound) . Blood samples were collected in heparinized tubes at up to 7 tim e points after this injection (i.e. 0.08, 0.25, 0.5, 1, 2, 4 and 8 hr), and the plasma concentrations of the test peptide were determined at each time point by LC-MS/ MS, using a f ive- point standard curve covering a peptide concentration range from 3 to 3,000 ng/mL. Standard curves were prepared using blank plasma matrices and treated in the same manner as the test samples. The main pharmacok inetic parameters determined in these analyses were: terminal half-lif e (t 1/2 ), plasma clearance (CL), volume of distribution (V d ), and area under the plasma concentration versus time curve (AUC) (Figure 7A, Table S6). Values were calculated from the data of the peptide plasma concentration versus time curves using a non-compartmental model analysis, as described elsewhere (Groulx, 2006; Landaw and Di Stef ano 3rd, 1982) . […]

[2] = plasma protein binding; type: in vitro ADME; conditions: read-out: PPB (fraction unbound)
Source text: (§2) Pharmacophore Model Building
(§3) The pharmacophore predictive
(§4) Broad- Panel Kinase Profiling
(§5) according to in-house protocols therein.
as §1
(§6) In vitro pharmacok inetic assays were […]

[3] = target: T1, GADD45β/MKK7 complex (Homo sapiens, UniProt O14733); assay: ELISA GADD45β/MKK7 competition assay; type: binding
T1 construct: Full-length human (h)MKK7 was expressed as a protein fused to an N-terminal GST tag (GST-MKK7); made in house
T1 sequence (O14733 1-419): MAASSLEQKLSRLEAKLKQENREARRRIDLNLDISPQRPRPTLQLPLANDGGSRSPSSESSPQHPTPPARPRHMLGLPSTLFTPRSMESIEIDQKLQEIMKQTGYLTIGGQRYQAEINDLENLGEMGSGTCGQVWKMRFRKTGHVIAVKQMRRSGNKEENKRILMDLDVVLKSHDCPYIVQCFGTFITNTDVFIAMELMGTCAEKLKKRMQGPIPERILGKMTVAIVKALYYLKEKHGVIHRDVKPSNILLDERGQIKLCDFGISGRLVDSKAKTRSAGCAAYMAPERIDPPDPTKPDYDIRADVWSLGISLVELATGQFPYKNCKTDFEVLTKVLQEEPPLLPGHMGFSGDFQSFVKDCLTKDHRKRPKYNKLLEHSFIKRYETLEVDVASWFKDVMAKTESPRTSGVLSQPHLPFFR
Source text: (§7) Additional details are provided in Supplemental Experimental Procedures.
(1:1,000) and the HRP chromogenic substrate, o -phenylenediamine (OPD). GST -coated wells wer e […]
The ELISA competition screen used f or the isolation of antagonists of the GADD45β /MKK7 […]
The library deconvolution strategy used for this screen was described previously […]
General information about this type of screens can be found elsewhere […]
Values were expressed as the percentage of inhibition of His6-hGADD45β binding to GST-hMKK7 relative to the binding measured in the absence of […]
Dose-response, ELISA GADD45β /MKK7 competition assays were carried out under similar […]
As part of the SAR analysis and lead optimization process, where appropriate, competitors were tested at a concentration up to 100 nM. In order to determine their stability in biolog ical f luids , peptides were incubated at the concentration of 10 µM in […]
calculated using at least 7 concentrations of peptide and def ined as the mean concentration of peptide […]
the absence of competitor. W here indicated, values were expressed as the percentage of inhibition of His 6 -hGADD45β binding to GST-hMKK7 relative to the binding measured in the absence of competitor.
GST was used as a control in all the experiments. […]
tetrapeptide used as negative control in some of the ELISA and cellular assays was as f ollows: z -DNC, z-T yr -Asp-His-Gln-NH 2 . […]

[4] = subcutaneous U266 myeloma xenograft (plasmacytoma model); type: in vivo, mice; conditions: male, NOD/SCID (NOD.CB17-Prkdcscid/IcrCrl), mouse, plasma, sc; continual infusion 14.5 mg/kg/day; SEM, n=16; read-out: plasma concentration at the steady state
[5] = thermodynamic solubility; type: physicochemical; conditions: in PBS, pH 7.4, for 14 days at 37 °C
Source text: as §2, §3, §4, §5, §1, §6

[6] = tested on: human PBMCs; assay: cells; conditions: read-out: IC50 (normal; PBMCs); at 48 hr
Source text: as §7
(§8) automated system (Becton Dick inson) and analyzed with FlowJo.

[7] = tested on: human BMSCs; assay: cells; conditions: read-out: IC50 (normal; BMSCs); at 48 hr
Source text: as §7, §8

[8] = tested on: CD138+ cells from MM patients; assay: cells; conditions: read-out: IC50 (MM; PCs (n = 8)); at 48 hr; mean ± SEM
Source text: as §7, §8

[9] = tested on: human mesenchymal stem cells (MSCs); assay: cells; conditions: read-out: IC50 (normal; MCSs); at 48 hr
Source text: as §7, §8

[10] = tested on: CD138+ cells from WM patients; assay: cells; conditions: read-out: IC50 (WM; PCs (n= 2)); at 48 hr; mean ± SEM
Source text: as §7, §8

[11] = tested on: mouse lymph node (LN) cells; assay: cells; conditions: read-out: IC50 (normal; lymph node cells); at 48 hr
Source text: as §7, §8

[12] = tested on: mouse splenocytes; assay: cells; conditions: read-out: IC50 (normal; splenocytes); at 48 hr
Source text: as §7, §8

[13] = plasma stability; type: in vitro ADME, human
Source text: as §2, §3, §4, §5, §1, §6

For `CC(=O)N[C@H](Cc1ccc(O)cc1)C(=O)N[C@H](CCCNC(=N)N)C(=O)N[C@H](Cc1ccccc1)C(N)=O` [DTP3, Ac-YRF-NH2], the “predicted dose required to achieve the therapeutic plasma concentration of 1 μM at the steady state” value ([1]; k0 = k1 x Vd x Cp) was 0.81 mg/kg/h, the AUC ([1]; mouse, in vivo, iv, 10 mg/kg) was 6430 ± 10 ng·h/mL and the Vd ([1]; mouse, in vivo, iv, 10 mg/kg) was 2.8 ± 1.26 L/kg. It also gave a clearance ([1]; mouse, in vivo, iv, 10 mg/kg) of 27.1 ± 4.09 mL/min/kg, a half-life ([1]; mouse, in vivo, iv, 10 mg/kg) of 75.6 min and a fraction unbound ([2]; human) of 0.933 ± 0.004. The fraction unbound ([2]; mouse) was 0.42 ± 0.01, the IC50 ([3]; Table S4, read-out: IC50s (ELISA)) was 0.16 nM and the inhibition at 0.042 µM ([3]; read-out: % inhibition of (ELISA)) was 94%. The level at time molar [4] was 700 ± 90 nM, the solubility thermodynamic [5] was 169 ± 7.53 mg/mL (≈ 322 mM) and the IC50 [6] was > 100 µM. For the same compound, the IC50 [7] was > 100 µM, the IC50 [8] was 28.2 ± 0.1 nM and the IC50 [9] was > 100 µM. The IC50 [10] was > 10 µM, the IC50 [11] was > 100 µM and the IC50 [12] was > 100 µM. The “plasma stability (human)” value [13] was > 48 h.
